Source: US7314888B1, “Compounds and medicinal use thereof” (Toyama Chemical Co., Ltd., priority 1998, dated 2008)
Like-named read-outs stand apart in the source and are kept apart here.

Key:
[1] = system: type II collagen-induced arthritis; assay: Type II collagen-induced arthritis in mice; format: in vivo; conditions: for inhibition at 100 mg/kg: Mus musculus, po, 100 mg/kg orally, 37th day
Procedure: Type II Collagen-Induced Arthritis in Mice The effect of the compound of Example 12 on the type II collagen-induced arthritis in mice was examined. As the animals, 8 weeks old male DBA/1J mice (Charles River Japan) were used. To 2 mg/mL solution of bovine type II collagen in 0.1 mol/L acetic acid (Kouken) was added an equivalent quantity of Freund complete adjuvant (Nacalai Tesque), and prepared an emulsion. 0.2 ml of the emulsion was subcutaneously injected into the tail root portion. On the 22nd day as counted from the day of first inoculation, the same treatment as above was repeated to induce arthritis. The compound was suspended in 0.5% methyl cellulose solution and administered orally at 100 mg/kg once every day from the 22nd day to the 36th day. To the control group (negative control group), a 0.5% methyl cellulose solution was administered similarly. Severity of the arthritis was evaluated in the following manner: score 0: no change score 1: swelling on one or two toes or slight swelling in the foreleg root or hindleg root only; score 2: swelling and rubor in more joints; score 3: extensive swelling over whole foreleg or hindleg; and total of the four legs was calculated. Taking the maximum score as 12, the arthritis score was calculated to evaluate the severity of arthritis. Regarding the destruction of joints and bones, X ray photographs of four paws were taken on the 37th day, and severity of destruction in the second to fifth articulationes interphalangeae, first to fifth articulationes metacarpophalangeae and metatarsophalangeae, and calcaneus was scored by 0 or 1 in accordance with presence or absence of destruction, and the severity of destruction in the carpus and tarsal was scored by 0 to 3. Total score for the four paws was taken as joint and bone destruction score, taking 50 points as maximum score.

[2] = biological target: T1, AP-1 complex (Fos/Jun peptide) (Homo sapiens, UniProt P01100+P05412); assay: Activities on AP-1 binding reaction to recognition sequence (ELISA) using Fos/Jun peptide; conditions: read-out: Inhibition rate %
T1 construct: made in house; host or cells: chemical peptide synthesis (no expression host)
T1 sequence (P01100 137-200 limits assumed): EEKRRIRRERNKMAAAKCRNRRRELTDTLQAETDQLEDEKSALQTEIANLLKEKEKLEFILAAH
T1 sequence (P05412 252-315 limits assumed): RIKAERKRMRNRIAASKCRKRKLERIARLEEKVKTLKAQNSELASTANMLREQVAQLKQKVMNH
Procedure: Activities on AP-1 Binding Reaction to Recognition Sequence (ELISA)
On the other hand, Jun peptide and N-terminal biotinylated tetraglycine Fos peptide containing a DNA-binding site [Nature, Vol. 373, Pages 257-261, 1995] were synthesized and separately dissolved in tris buffer (20 mM tris-hydrochloride (pH 7.5), 50 mM potassium chloride, 1 mM ethylenediaminetetraacetic acid, 10 mM magnesium chloride, 1 mM dithiothreitol, 0.5M guanidine hydrochloride, 30% glycerol). Equimolar quantities of both the solutions were mixed together, and the mixture was used as an AP-1 complex (Fos/Jun peptide). The AP-1 complex was added to avidin-coating 96-well ELISA plate (10 pmol/well), washed, and then blocked with bovine serum albumin. The product was used for binding assay using AP-1 complex.
On the basis of the above-mentioned two coated AP-1, a digoxigenin-labeled double stranded oligonucleotide (22-mer) containing an AP-1 binding sequence ([…]) which has been synthesized elsewhere was reacted in the presence and absence of a sample at room temperature for 30-60 minutes in a binding reaction solution [Hepes buffer or 25 mM tris-hydrochloric acid (pH 7.9), 0.5 mM ethylenediaminetetraacetic acid, 0.05% Nonidet P-40, 10% glycerol]. After of the reaction, unbound labeled oligonucleotide washed out with Hepes buffer solution containing 0.05% of Tween-20. Then, an anti-digoxigenin antibody labeled with peroxidase was added, and reacted with the labeled oligonucleotide bound to AP-1. After washing out the excessive antibody with Hepes buffer containing 0.05% of Tween-20, the residue was reacted for a predetermined period of time in a 100 mM citrate buffer (pH 5.0) containing hydrogen peroxide by using o-phenylenediamine as a substrate. After adding-sulfuric acid solution to each well, absorbance (492 nm) was measured. Taking the absorbance in the absence of sample as 100%, inhibition rate of sample was calculated from the absorbance in the presence of sample.

How did the arthritis score ([1]; DBA/1J mice, 100 mg/kg orally once every day from 22nd to 36th day, 37th day from first inoculation, maximum score 12) turn out when `CC(C)COc1ccc(C(=O)c2ccc(OCC(C)C)c(CCC(=O)O)c2)c(OCC(C)C)c1` [Example 12, 3-[5-(2,4-diisobutoxybenzoyl)-2-isobutoxyphenyl]propionic acid] was run?
The arthritis score was 3.

And the “joint and bone destruction score” value ([1]; DBA/1J mice, 100 mg/kg orally once every day from 22nd to 36th day, X ray on 37th day, maximum score 50)?
The value was 10.

And the inhibition at 100 mg/kg ([1]; read-out: inhibition rate as compared with control group (arthritis score))?
The inhibition at 100 mg/kg was 63%.

And the inhibition at 100 mg/kg ([1]; read-out: inhibition rate as compared with control group (joint and bone destruction score))?
Its inhibition at 100 mg/kg is 62%.

What about the inhibition at 200 µM ([2]; 200 μM) of the same compound?
The inhibition at 200 µM was 24%.

And the inhibition at 500 µM ([2]; 500 μM)?
The inhibition at 500 µM was 90%.
